These molecules were tested against PAS domain-containing serine/threonine-protein kinase (Homo sapiens, UniProt Q96RG2) (assay: Inhibition of GST-tagged human recombinant PASK expressed in Baculovirus based system using Ulight-peptide substrate incubated for 2 hrs by TR-FRET assay).
PAS domain-containing serine/threonine-protein kinase, sequence (Q96RG2 whole entry, the tested form may be a part): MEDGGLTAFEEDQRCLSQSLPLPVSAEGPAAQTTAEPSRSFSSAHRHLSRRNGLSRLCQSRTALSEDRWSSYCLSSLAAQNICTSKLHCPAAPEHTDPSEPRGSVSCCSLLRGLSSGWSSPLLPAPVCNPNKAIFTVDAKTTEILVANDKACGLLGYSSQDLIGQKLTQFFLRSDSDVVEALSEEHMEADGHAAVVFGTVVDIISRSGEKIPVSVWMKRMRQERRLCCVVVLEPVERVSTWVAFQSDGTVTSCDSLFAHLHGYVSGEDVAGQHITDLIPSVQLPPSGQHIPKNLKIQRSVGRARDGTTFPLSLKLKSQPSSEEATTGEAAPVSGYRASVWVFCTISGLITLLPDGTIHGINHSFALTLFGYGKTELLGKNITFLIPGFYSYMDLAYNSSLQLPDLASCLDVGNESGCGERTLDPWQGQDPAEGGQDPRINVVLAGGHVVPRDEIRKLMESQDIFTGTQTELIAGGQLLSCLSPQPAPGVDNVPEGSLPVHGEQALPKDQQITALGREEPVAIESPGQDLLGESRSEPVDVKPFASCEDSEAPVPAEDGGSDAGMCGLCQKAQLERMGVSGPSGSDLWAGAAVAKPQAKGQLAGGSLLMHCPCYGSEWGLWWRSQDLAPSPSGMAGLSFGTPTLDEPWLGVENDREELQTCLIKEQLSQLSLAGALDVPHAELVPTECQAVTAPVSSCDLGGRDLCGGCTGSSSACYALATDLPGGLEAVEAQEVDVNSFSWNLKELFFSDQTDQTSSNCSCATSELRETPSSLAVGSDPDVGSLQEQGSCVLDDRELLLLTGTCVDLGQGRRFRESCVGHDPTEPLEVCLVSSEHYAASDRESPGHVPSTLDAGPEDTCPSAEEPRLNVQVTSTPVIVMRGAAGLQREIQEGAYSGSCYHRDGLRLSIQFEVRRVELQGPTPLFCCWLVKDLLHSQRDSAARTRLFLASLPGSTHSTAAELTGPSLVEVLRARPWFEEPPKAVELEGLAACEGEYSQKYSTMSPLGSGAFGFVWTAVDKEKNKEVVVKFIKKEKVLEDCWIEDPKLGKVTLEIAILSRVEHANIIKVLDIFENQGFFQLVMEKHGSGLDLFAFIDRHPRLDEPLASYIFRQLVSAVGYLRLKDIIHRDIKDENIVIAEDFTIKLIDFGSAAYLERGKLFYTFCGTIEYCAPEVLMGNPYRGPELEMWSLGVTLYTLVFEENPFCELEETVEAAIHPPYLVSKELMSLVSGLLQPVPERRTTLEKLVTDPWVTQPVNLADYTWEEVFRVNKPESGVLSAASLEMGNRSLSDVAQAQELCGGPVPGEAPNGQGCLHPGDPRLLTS

IC50, ≤ 10 µM:
C[C@H]1CCCN1c1nc2cc(C(=O)O)ccc2nc1-c1coc2ccc(C(F)(F)F)cc12
CC(C)N(C)c1nc2cc(C(=O)O)ccc2nc1-c1coc2ccc(C(F)(F)F)cc12
CN(c1nc2cc(C(=O)O)ccc2nc1-c1ccc(F)cc1)C1CCC(O)CC1 (centres undefined)
C[C@H]1CCCCN1c1nc2cc(C(=O)O)ccc2nc1-c1cc2cc(F)ccc2o1

— ChEMBL document CHEMBL4418262, “Heterocyclic compounds for the inhibition of pask” (2016)
